Results on one compound are retold here after patent US10517842B2, “Methods of modulating miRNA levels and compositions for use in the same” (Los Angeles Biomedical Research Institute at Harbor-UCLA …, priority 2017, dated 2019).

The test system of one test is 3′UTR of CDK2. Briefly: 3′UTR luciferase reporter assay in LSMC. It counts as cell-based, human. Particulars: Tranilast 200 μM vs DMSO set as 1, 48 hrs before and 48 hrs after transfection, LSMC; P<0.05. Background: Reporter assays use an easily measured gene product as a stand-in for the process of interest.
Another test relates to CCND1. Briefly: Quantitative RT-PCR, mRNA expression in LSMC. It counts as cell-based, human. The note with it: Tranilast 200 μM vs DMSO, 12 h to 48 h, P<0.05. Here is the method:
(§1) Total RNA was extracted from LSMC using RNAzol (GeneCopoeia, Rockville, Md.) and their quantity and quality was determined (ND-1000 Spectrophotometer, NanoDrop Technologies, Wilmington, Del.) as previously described (Chuang & Khorram, “miR-200c Regulates IL8 Expression by Targeting IKBKB: A Potential Mediator of Inflammation in Leiomyoma Pathogenesis,” PloS one (2014) 9:e95370). For medium miRNA extraction, 5 pg of synthetic miR-1 from Caenorhabditis elegans (cel-miR-1) was added as a spike-in control for purification efficiency. Subsequently, 2 μg or 10 ng (for miRNA) was reverse transcribed using random primers for CCND1, CDK2, COL1A1, COL3A1, TGF-β3, DNMT1 and EZH2 or specific primers for miR-29c and miR-200c according to the manufacturer's guidelines (Applied Biosystems, Carlsbad, Calif.). Quantitative RT-PCR was carried out using SYBR gene expression master mix or TaqMan miRNA expression assays (Applied Biosystems). Reactions were incubated for 10 min at 95° C. followed by 40 cycles for 15 seconds at 95° C. and 1 min at 60° C. The level of mRNAs and expression of cellular and secreted miRNA was determined using the Invitrogen StepOne System with 18S, RNU6B and cel-miR-1 used for normalization respectively. All reactions were run in triplicate and relative expression was analyzed with the comparative cycle threshold method (2^−ΔΔCT) according to the manufacturer (Applied Biosystems). Values were expressed as fold change compared to the control group.

In the next test the test system is TGF-β3. Briefly: Quantitative RT-PCR, mRNA expression in LSMC. It counts as cell-based, human. Particulars: Tranilast 200 μM vs DMSO, 12 h to 48 h, P<0.05. As for the experimental part: as §1
The test system of another test is EZH2. Briefly: Quantitative RT-PCR, mRNA expression in LSMC. It counts as cell-based, human. The note with it: Tranilast 200 μM vs DMSO, 12 h to 48 h, P<0.05. As for the experimental part: as §1
The next test deals with CDK2. Briefly: Quantitative RT-PCR, mRNA expression in LSMC. It counts as cell-based, human. Particulars: Tranilast 200 μM vs DMSO, 12 h to 48 h, P<0.05. As for the experimental part: as §1
The subject of a further test is COL3A1. Description: Quantitative RT-PCR, mRNA expression in LSMC. It counts as cell-based, human. The note with it: Tranilast 200 μM vs DMSO, 12 h to 48 h, P<0.05. Here is the method: as §1
The subject of test [1] is 3′UTR of CDK2 in lung cancer cell line A549. Briefly: 3′UTR luciferase reporter assay in A549. Particulars: Tranilast. It counts as cell-based.
For another test, the system named is leiomyoma xenografts. Briefly: Leiomyoma xenograft mouse model (LSMC under the kidney capsule). It counts as in vivo, CB-17 SCID/beige mice. Particulars: Tranilast 50 mg/kg/day i.p. daily for 3 weeks, mice. The source says:
We injected primary leiomyoma cells under the kidney capsule of CB-17 SCID/beige mice using a 27 g needle as previously reported (Ishikawa et al., “Progesterone is essential for maintenance and growth of uterine leiomyoma,” Endocrinology (2010) 151: 2433-2442; Ono et al, “Paracrine activation of WNT/beta-catenin pathway in uterine leiomyoma stem cells promotes tumor growth,” Proceedings of the National Academy of Sciences of the United States of America (2013) 110: 17053-17058). After two weeks we excised the xenograft, fixed the tissue, embedded it in paraffin and obtained 5 μm sections for staining. […] This animal model is used to evaluate the efficacy of Tranilast on tumor initiation, progression, histology, and expression of miR-200c and miR-29c and their respective target genes.
Freshly isolated LSMC are injected under the kidney capsule of female ovariectomized CB-17 SCID/beige mice implanted with pellet containing estradiol (0.05 mg/90 d release) and progesterone (25 mg/60 d release) as previously reported (Ishikawa et al., “Progesterone is essential for maintenance and growth of uterine leiomyoma,” Endocrinology (2010) 151: 2433-2442; Ono et al, “Paracrine activation of WNT/beta-catenin pathway in uterine leiomyoma stem cells promotes tumor growth,” Proceedings of the National Academy of Sciences of the United States of America (2013) 110: 17053-17058). For injections of leiomyoma cells, freshly isolated cells from hysterectomy specimens are suspended in rat-tail collagen (type I) solution (BD Biosciences) at 1×10^6 cells/10 μl and grafted onto kidney capsule.
To determine the effects of Tranilast on tumor initiation, immediately after subcapsular injection of cells mice (10 per group) will be treated i.p. daily for 3 weeks with vehicle (1% DMSO) or Tranilast (50 mg/kg/day) (Kim et al., “Effects of tranilast and pentoxifylline in a mouse model of chronic asthma using house dust mite antigen,” The Journal of asthma: official journal of the Association for the Care of Asthma (2009) 46: 884-894) at which point the animals are sacrificed and tumors excised, weighed and measured and subjected for further analyses detailed below.
To determine tumor progression in an additional four groups (10/group), LMSC cells are injected under the kidney capsule and tumors are allowed to develop for five weeks. Mice are then injected i.p. daily for 3 more weeks with vehicle or Tranilast (50 mg/kg/day) (Kim et al., “Effects of tranilast and pentoxifylline in a mouse model of chronic asthma using house dust mite antigen,” The Journal of asthma: official journal of the Association for the Care of Asthma (2009) 46: 884-894) at which time the animals are sacrificed and tumors excised, weighed, measured and subjected for further analysis.
For tumor analysis, portions of tumors are allocated for RNA and protein extraction, and the remainder fixed in 4% neutral-buffered formalin and embedded in paraffin (FFPE) for histologic analysis. To assess the rate of collagen deposition, 5 μm cut paraffin sections are subjected to histologic analysis and stained with Masson's Trichrome and Sirius Red (Sigma-Aldrich), and images are analyzed by Image-Pro Plus software (Media Cybernetics) as described in detail in our prior publications (Khorram et al., “Nutrient restriction in utero induces remodeling of the vascular extracellular matrix in rat offspring,” Reproductive sciences (2007) 14: 73-80; Khorram et al., “In utero undernutrition in rats induces increased vascular smooth muscle content in the offspring, American journal of obstetrics and gynecology (2007) 196: 486.e481-488). For Immunohistochemistry, the sections are de-paraffinized in xylene, and heated in 0.01 M citrate buffer for 15 min in a microwave oven. Slides are then incubated in methanol containing 0.3% hydrogen peroxide. Slides are incubated with primary antibody or control serum, washed, and followed by application of secondary antibody. The chromogen used is diaminobenzidine (DAKO). […]

As to `COc1ccc(C=CC(=O)Nc2ccccc2C(=O)O)cc1OC` [Tranilast, 2-[[3-(3,4-dimethoxyphenyl)-1-oxo-2-propenyl]amino]benzoic acid], the “3′UTR activity of CDK2 (relative luciferase activity, Firefly:Renilla)” value in the test with 3′UTR of CDK2 is recorded as “suppressed”. Also, the “CCND1 expression, mRNA level” value in the test on CCND1 is given as “significantly inhibited”. In addition, the “TGF-β3 expression, mRNA level” value with TGF-β3 is “significantly inhibited”. For the same compound, the “EZH2 expression, mRNA level” value in the test on EZH2 is recorded as “significantly inhibited”. Moreover, the “CDK2 expression, mRNA level” value with CDK2 is “significantly inhibited”. In addition, the “COL3A1 expression, mRNA level” value in the test on COL3A1 is on record as “significantly inhibited”. The “activity of luciferase reporter containing 3′UTR of CDK2” value in test [1] is reported as “Inhibits”. In the test with leiomyoma xenografts, the “NF-kB signaling in xenograft” value is reported as “inhibition”; the “cell proliferation (Ki-67 and PCNA labeling index)” value is “reduce”; the leiomyoma size result is given as “shrinkage”; the “methytransferases (DNMT1) in xenograft” value is on record as “inhibition”. In addition, in the test on leiomyoma xenografts, the “miR-29c expression in xenograft” value is on record as “up-regulate”, the “miR-200c expression in xenograft” value is on record as “up-regulate” and the “rate of collagen deposition (Sirius Red staining)” value is “reduce”.
